Counter-ions that a name gives are not always drawn. Like-named read-outs stand apart in the source and are kept apart here.

Broadly, the IC50 is the midpoint of a concentration-inhibition curve.

Experiment [1] has as its target Amyloid-beta(1-40) binding to heparin (HS-GAG) (Homo sapiens, UniProt P05067). Briefly: Inhibition of Amyloid-beta(1-40) binding to immobilized heparin-BSA (ELISA). The arrangement: species or system porcine. As to conditions: for IC50: Abeta40/Heparin Activity (IC-50), co-incubation on heparin-BSA plates; for inhibition at 30 µM: read-out: Abeta40/Heparin Activity (% inhibition class). On the procedure:
(§1) Porcine intestinal mucosa heparin conjugated to Bovine Serum Albumin (Heparin-BSA) was prepared as described (Najjam, S. et al. 1997, Cytokine 12, 1013-1022). Heparin is a sulfated HS-GAG and is commonly used as a HS-GAG in biochemical and binding assays (Lindahl, U. and Kjellen, L. (2013) ibid). Heparin-BSA at 0.01 mg/ml in Phosphate Buffered Saline (PBS; pH 7.4) was added to a 96 well polystyrene ELISA plate (NUNC Cat. No. 449824; 100 μl per well) and incubated Over Night (ON) at 4 degrees Celsius. For negative controls, ELISA plates were coated with BSA instead of Heparin-BSA, using the same procedure. Following the incubation, the plate was washed consecutively, by immersion, with de-ionized water and PBS (pH 7.4). The ELISA plate was then blocked with nonfat milk (2%, 200 μl per well) for 2 hours at Room Temperature (RT) with gentle shaking. Following blocking, the plate was washed with de-ionized water then PBS (pH 7.4). GBAPs were dissolved and diluted in PBS (pH 6.5, supplemented with 0.1% BSA) at desired concentrations, added to the ELISA plates containing immobilized Heparin-BSA (100 μl per well) and incubated for 2 hours at RT with gentle shaking. Following incubation, the plate was washed with de-ionized water and three times with PBS (pH 6.5) plus Tween. Bound GBAP was detected by a monoclonal antibody specific for that GBAP, followed by incubation with secondary antibody conjugated to horseradish peroxidase (HRP). Antibody was diluted in PBS (pH 6.5 supplemented with 1% BSA). Following each incubation with antibody, the plate was washed with de-ionized water and three times with PBS (pH 6.5) wash buffer containing 0.1% Tween. The peroxidase substrate chromogen, TMB (Dako Cat. No. S1599) was added (100 μl per well) to the ELISA plate and incubated at room temperature. After 5 minutes ELISA Stop Solution (hydrochloric acid 1N, sulfuric acid 3N) was added (100 μl per well) to stop the peroxidase catalyzed colorimetric reaction. The Optical Density of the samples was measured at 450 nm using an ELISA plate reader (BioTek Synergy H1). Following color development, the % inhibition compared to control (BSA-coated plates) was determined. IC-50s were calculated using GraphPad Prism software.
The assay was performed as described in Example 43, with the following modifications. Following to coating the plates with Heparin-BSA, plates were washed as described. The compounds were dissolved in DMSO at 10 mM final concentration and further diluted prior to assay. DMSO concentration in the screening well was up to 2%. Individual compounds were co-incubated with Beta-amyloid peptides on plates containing immobilized heparin. Beta-amyloid (1-42) was purchased from rPeptide (Cat. No. A1163) and used to prepare oligomers according to Stine et al., 2003 (J Biol Chem. 278(13):11612-22) as follows. 1,1,1,3,3,3-Hexafluoro-2-propanol- (HFIP; Sigma Cat. No. 105228)-treated Beta amyloid (1-42) was dissolved in dry DMSO (Sigma Cat. No. D2650) to 5 mM concentration. Dissolved Beta amyloid (1-42) was then diluted to 100 μM in ice-cold cell culture medium (phenol red-free Ham's F-12; Caisson Labs, Cat. No. HFL05), followed immediately by vortexing for 30 seconds, and incubating at 4 degrees Celsius for 24 h. Resulting Beta amyloid (1-42) oligomers were centrifuged at 12,000 rpm for 10 min at 4 degree Celsius to remove aggregates. Oligomers were then quickly frozen and kept in aliquots at −80 degrees Celsius. Beta-amyloid (1-40) from rPeptide (Cat No. A1153) was dissolved in DMSO, quickly frozen and kept in aliquots at −80 degrees Celsius. Beta-amyloid (1-42) oligomers or Beta-amyloid (1-40) diluted in PBS (pH 6.5, supplemented with BSA, 0.1%) were added to the ELISA plate (100 μl per well) and incubated for 2 hours at RT with gentle shaking. Following the incubation, the plate was washed with de-ionized water and three times with PBS (pH 6.5) plus Tween. […]
In general terms: ELISA stands for enzyme-linked immunosorbent assay.

Experiment [2] concerns the target Tau binding to heparin (HS-GAG) (Homo sapiens, UniProt P10636). Description: Inhibition of Tau binding to immobilized heparin-BSA (ELISA). Set-up: species or system porcine. As to conditions: for inhibition at 30 µM: read-out: Tau/Heparin Activity (% inhibition class); for IC50: Tau/Heparin Activity (IC-50). On the procedure:
as §1
The assay was performed as described in Example 43, with the following modifications. Following to coating the plates with Heparin-BSA, plates were washed as described. The compounds were dissolved in DMSO at 10 mM final concentration and further diluted prior to assay. DMSO concentration in the screening well was up to 2%. Individual compounds were co-incubated with Tau on plates containing immobilized heparin. Tau purchased from rPeptide (Cat. No. T1001) was dissolved in DMSO (Sigma Cat. No. D2650), quickly frozen and kept in aliquots at −80 degrees Celsius. Tau dissolved in PBS (pH 6.5, supplemented with BSA, 0.1%) was added to the ELISA plate (100 μl per well) and incubated for 2 hours at RT with gentle shaking. Following the incubation, the plate was washed with de-ionized water and three times with PBS (pH 6.5) plus Tween. Bound Tau was detected by anti-Tau Monoclonal Antibody D-8 (Santa Cruz Cat. No. sc-166060), followed by secondary anti-IgG antibody conjugated to HRP (R&D System, Cat. No. HAF007). Following to color development with TMB, as described in Example 43, the Optical Density of the samples was measured at 450 nm using an ELISA plate reader. Following color development, the % inhibition compared to control (no compound, DMSO control) for every compound was determined.
An example of inhibition curve is shown in FIG. 3 for Inhibitor Compounds 3 and 6. As described in Example 43, Heparin in the form of Heparin-BSA conjugate is used as a source of HS-GAG. For each compound IC-50 value in Tau—heparin-BSA binding assay is shown in […]. In some cases IC-50 was not measured and […] at 30 μM compound concentration is shown instead. […]

Where [3] appears, read: 30 μM compound, Tau, heparin-BSA.

Chain of Tau binding to heparin (HS-GAG) (P10636 with tags, fused parts or gaps): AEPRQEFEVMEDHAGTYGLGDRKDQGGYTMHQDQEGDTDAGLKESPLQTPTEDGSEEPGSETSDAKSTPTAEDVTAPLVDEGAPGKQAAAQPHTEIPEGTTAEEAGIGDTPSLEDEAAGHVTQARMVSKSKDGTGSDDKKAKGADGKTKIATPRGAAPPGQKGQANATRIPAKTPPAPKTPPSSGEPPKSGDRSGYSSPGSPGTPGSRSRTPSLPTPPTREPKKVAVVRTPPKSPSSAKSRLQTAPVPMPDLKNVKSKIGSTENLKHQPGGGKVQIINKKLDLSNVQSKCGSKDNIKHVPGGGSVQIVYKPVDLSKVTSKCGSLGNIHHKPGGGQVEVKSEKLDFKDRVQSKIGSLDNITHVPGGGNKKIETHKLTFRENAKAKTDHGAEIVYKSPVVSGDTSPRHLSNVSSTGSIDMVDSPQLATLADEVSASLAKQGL
Chain of Amyloid-beta(1-40) binding to heparin (HS-GAG) (P05067 672-711): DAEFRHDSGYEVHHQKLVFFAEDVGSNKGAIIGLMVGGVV

Consider `CCN(CC)Cc1cccc(Nc2ccnc3cc(Cl)ccc23)c1` [Compound 42, 7-chloro-N-(3-((diethylamino)methyl)phenyl)quinolin-4-amine], for which, in experiment [1] (Abeta(1-40)), the IC50 amounted to 12.3 µM. Besides, in experiment [2] (setting [3]), the inhibition at 30 µM was below 30%.

Regarding `CCN1CCN(c2ccc(Nc3ccnc4cc5ccccc5cc34)cc2)CC1` [Compound 39, N-(4-(4-ethylpiperazin-1-yl)phenyl)benzo[g]quinolin-4-amine], the IC50 is 20.7 µM in experiment [1] (Abeta(1-40)) and 13.2 µM in experiment [2] (Tau, heparin-BSA).

Take `Fc1cc(/C=N/Nc2ccnc3cc(Cl)ccc23)ccc1-n1ccnc1` [Compound 35, (E)-7-chloro-4-(2-(3-fluoro-4-(1H-imidazol-1-yl)benzylidene)hydrazineyl)quinoline hydrochloride]: in experiment [1], the inhibition at 30 µM is below 30%. Besides, the IC50 in experiment [2] (Tau, heparin-BSA) is 41.3 µM.

As for `C(=N\Nc1ccc2c3c(cccc13)CC2)/c1ccc(-n2ccnc2)cc1` [Compound 8, (E)-1-(4-((2-(1,2-dihydroacenaphthylen-5-yl)hydrazineylidene)methyl)phenyl)-1H-imidazole], the inhibition at 30 µM in experiment [1] and in experiment [2] was below 30% each time.

For the molecule `CC(=NNc1ccnc2cc(Cl)ccc12)c1ccc(-n2cc[n+](C)c2)nc1` [Compound 23, 1-(5-(1-(2-(7-chloroquinolin-4-yl)hydrazineylidene)ethyl)pyridin-2-yl)-3-methyl-1H-imidazol-3-ium iodide], the inhibition at 30 µM in experiment [1] was above 30%. For the same molecule, the IC50 in experiment [2] (Tau, heparin-BSA) was determined as 25.7 µM.

For the molecule `CC(=NNc1ccnc2cc(Cl)ccc12)c1ccc(-n2cnc(C)c2C)nc1` [Compound 22, 7-chloro-4-(2-(1-(6-(4,5-dimethyl-1H-imidazol-1-yl)pyridin-3-yl)ethylidene)hydrazineyl)quinoline], the IC50 in experiment [1] (Abeta(1-40)) was determined as 16.3 µM; in experiment [2] (Tau, heparin-BSA), 28.2 µM.

For `Fc1ccc2c(N/N=C/c3ccc(-n4ccnc4)cc3)ccnc2c1` [Compound 5, (E)-4-(2-(4-(1H-imidazol-1-yl)benzylidene)hydrazinyl)-7-fluoroquinoline], the IC50 in experiment [1] (Abeta(1-40)) came out at 3.33 µM; in experiment [2] (Tau, heparin-BSA), 31.4 µM.

In the case of `CN(C)Cc1cc(Nc2ccnc3cc(Cl)ccc23)ccn1` [Compound 45, 7-chloro-N-(2-((dimethylamino)methyl)pyridin-4-yl)quinolin-4-amine], the inhibition at 30 µM in experiment [1] (30 μM compound, Abeta(1-40), heparin-BSA) is below 30%; in experiment [2] (setting [3]) it was below 30%.

Turning to `Cc1ncn(-c2ncc(Nc3ncnc4cc(Cl)ccc34)cc2O)c1C` [Compound 40, 5-((7-chloroquinazolin-4-yl)amino)-2-(4,5-dimethyl-1H-imidazol-1-yl)pyridin-3-ol phosphoric acid salt], the figures for the inhibition at 30 µM in experiment [1] and in experiment [2] were below 30% and above 30%, respectively.

On to `C/C(=N\Nc1ncnc2ccccc12)c1ccc(-n2cc(C)nc2C)nc1` [Compound 19, (E)-4-(2-(1-(6-(2,4-dimethyl-1H-imidazol-1-yl)pyridin-3-yl)ethylidene)hydrazineyl)quinazoline], for which the IC50 in experiment [1] (Abeta(1-40)) was 10.2 µM; in experiment [2] (Tau, heparin-BSA), 46.6 µM.

Take `COc1cc(Nc2cncc3cc(Cl)ccc23)cnc1-n1cnc(C)c1C` [Compound 33, 7-chloro-N-(6-(4,5-dimethyl-1H-imidazol-1-yl)-5-methoxypyridin-3-yl)isoquinolin-4-amine phosphoric acid salt]: the inhibition at 30 µM in experiment [1] is below 30%. For the same molecule, the IC50 in experiment [2] (Tau, heparin-BSA) stood at 24.7 µM.

Take `Cc1cn(-c2ccc(Nc3cncc4cc(Cl)ccc34)cn2)c(C)n1` [Compound 37, 7-chloro-N-(6-(2,4-dimethyl-1H-imidazol-1-yl)pyridin-3-yl)isoquinolin-4-amine phosphoric acid salt]: the IC50 in experiment [1] (Abeta(1-40)) was determined as 45.6 µM. In addition, the inhibition at 30 µM in experiment [2] is below 30%.

Consider `CN1CCN(c2cc(Nc3ccnc4cc(Cl)ccc34)ccn2)CC1` [Compound 20, 7-chloro-N-(2-(4-methylpiperazin-1-yl)pyridin-4-yl)quinolin-4-amine], for which the inhibition at 30 µM in experiment [1] and in experiment [2] was below 30% in each case.

Regarding `COc1cc2nccc(NN=Cc3ccc(-n4ccnc4)c(C)c3)c2cc1OC` [Compound 11, 4-(2-(4-(1H-imidazol-1-yl)-3-methylbenzylidene)hydrazineyl)-6,7-dimethoxyquinoline hydrochloride], in experiment [1], the inhibition at 30 µM was above 30%. The IC50 in experiment [2] (Tau, heparin-BSA) was found to be 3.3 µM.

These data come from US20240398783A1, “Compounds and Pharmaceutical Compositions Comprising Inhibitors of Amyloid Peptide Interactions with Glycosaminoglycans, Methods of Treatment and Use Thereof” (Gismo Therapeutics, Inc., priority 2021, published 2024).
